# Columns and labels:
# RARα protein = assay: Western blot of nuclear RARα in RARγ-deficient macrophages; type: cell-based, mouse; conditions: TTNPB treatment
# Protocol: Nuclear protein extracts from tissues and macrophages were isolated according to the following method. Tissue samples and cells were first homogenized on ice and then lysed in lysis buffer (10 mM Tris [pH 7.5], 3 mM MgCl2, 10 mM NaCl, 0.5% NP-40) containing protease inhibitor cocktail. The nucleus was then pelleted by centrifugation for 10 min at 6,000× g, immediately resuspended in a nucleus suspension buffer (250 mM Tris [pH 8.0], 60 mM KCl, I mM dithiothrietol), and then rotated for 1 h. After centrifugation for 5 min at 6000× g, the solubilized nuclear proteins were separated by electrophoresis with a 4 to 15% gradient gel (Bio-Rad), transferred to nitrocellulose membrane (Trans-Blot transfer medium; Bio-Rad), and probed with anti-RARγ and anti-RARα antibodies (Santa Cruz Biotechnology, Santa Cruz, Calif.) and their respective horseradish peroxidase-conjugated secondary antibodies according to the manufacturer's recommendations. The intensities of the bands were quantified by using ImageQuant and normalized to (β-actin.
# [1] = Plasma and hepatic lipid analysis; type: in vivo, mouse; conditions: mice; for Hepatic lipid Cholesterol / Hepatic lipid Triglycerides / Plasma lipid Cholesterol / Plasma lipid Triglycerides: 24 h
# Protocol: Mice were fasted for 3 h before blood collection. Plasma was separated by centrifugation and kept at −80° C. until lipid analysis. Liver tissue samples (50 to 75 mg) were homogenized in PBS. Lipids were then extracted with chloroform-methanol (2/1 [vol/vol]) and redissolved in isopropanol. Triglyceride and cholesterol were measured in plasma and in the liver lipid extracts by using commercial kits (Wako Chemicals, Neusse Germany).
# [2] = tested on: SREBP-1c, FAS, ABCA1, Cyp26 mRNA in liver; assay: Gene expression in mouse liver after intraperitoneal injection; type: in vivo; conditions: mice, intraperitoneal 1 or 10 mg/kg, 24 h
# Protocol: (A) RAR regulation of ABCA1 and SREBP-1c expression in mouse peritoneal macrophages. […] ABCA1 and SREBP-1c mRNA levels were determined by quantitative real-time reverse transcription-PCR and standardized against β-actin mRNA levels. The results are expressed as mean±the SEM (n=4 and 6). *, P<0.05; **, P<0.01 (compared to control). […] After 24 h, the mice were anesthetized, the livers were perfused, and the square lobes were removed for isolation of RNA. […] The results are expressed as mean±the SEM (n=5).
# Total RNA was isolated from mouse peritoneal macrophages or ˜50 mg of mouse liver tissue by using the RNeasy Mini kit (Qiagen, Valencia, Calif.) or RNA-Bee reagent (Tel-Test, Inc., Friendswood, Tex.), respectively, according to the manufacturer's protocol. Real-time quantitative PCR assays were performed by using the Mx4000 Quantitative PCR System (Stratagene, La Jolla, Calif.). Briefly, 5 μg of total RNA was treated with RNase-free DNase I (Ambion, Austin, Tex.), and first-strand cDNA was synthesized with oligo(dT)12-18 by using a Superscript II RNase H^− reverse transcriptase reagent kit (Invitrogen) according to the manufacturer's protocol. For quantification of mouse ABCA1, ABCG1, SREBP-1c, LXRα, ApoE, and fatty acid synthase (FAS) mRNA levels, each amplification mixture contained 62.5 ng of cDNA, appropriate concentrations of forward and reverse primers and of dual-labeled fluorogenic probe (Biosearch Technologies, Novato, Calif.), and 12.5 μl of TaqMan Universal PCR master mix (Applied Biosystems, Foster City, Calif.). PCR thermocycling parameters were 50° C. for 2 min, 95° C. for 10 min, and 45 cycles of 95° C. for 15 s and 60° C. for 1 min. All samples were analyzed for β-actin expression in the same run. Quantitative expression values were extrapolated from standard curves for the gene of interest with 10-fold dilutions of cDNA (in triplicate). Each sample was normalized to β-actin, triplicates were averaged, and relative mRNA levels were determined. […]
# For quantification of mouse Cyp26 mRNA levels, each amplification mixture (25 μ) contained 62.5 ng of cDNA, 100 nM concentrations of reverse and forward primers, and 2.5 μl of 10× SYBR Green PCR master mix (Perkin-Elmer Life Sciences, Boston, Mass.). Quantitative expression values were extrapolated from standard curves for Cyp26 expression with 10-fold dilutions of cDNA (in triplicate). Each sample was normalized to β-actin that was deduced from TaqMan assays, triplicate results were averaged, and relative Cyp26 mRNA levels were determined. […]
structure (smiles),measurement,setting,value
"C/C(=C\c1ccc(C(=O)O)cc1)c1ccc2c(c1)C(C)(C)CCC2(C)C [TTNPB, 4-[E-2-5,6.7.8-tetrahydro-5,5,8,8-tetramethyl-2-naphthalenyl-l-propenyl]benzoic acid]",decrease of nuclear RARα,RARα protein,~2 fold
same,Hepatic lipid Cholesterol,[1]; 1 mg/kg intraperitoneally,1.43 ± 0.07 μg/mg of tissue
same,Hepatic lipid Triglycerides,[1]; 1 mg/kg intraperitoneally,11.57 ± 4.05 μg/mg of tissue
same,Plasma lipid Cholesterol,[1]; 1 mg/kg intraperitoneally,64.1 ± 8.0 mg/dL
same,Plasma lipid Triglycerides,[1]; 1 mg/kg intraperitoneally,35.1 ± 4.0 mg/dL
same,Hepatic lipid Cholesterol,[1]; 10 mg/kg intraperitoneally,1.31 ± 0.20 μg/mg of tissue
same,Hepatic lipid Triglycerides,[1]; 10 mg/kg intraperitoneally,9.25 ± 1.98 μg/mg of tissue
same,Plasma lipid Cholesterol,[1]; 10 mg/kg intraperitoneally,58.0 ± 4.9 mg/dL
same,Plasma lipid Triglycerides,[1]; 10 mg/kg intraperitoneally,33.1 ± 3.1 mg/dL
same,effect on hepatic triglyceride content,[1]; intraperitoneal,did not result in an increase
same,effect on triglyceride levels in plasma,"[1]; intraperitoneal, higher doses",significant reduction
same,Cyp26 mRNA in liver,[2],markedly induced
same,FAS gene expression in liver,[2],no response
same,hepatic ABCA1 mRNA,[2],not induced
same,hepatic SREBP-1c mRNA,[2],repressed

# From patent publication US20060009520A1, “Retinoid-based methods for altering macrophage cholesterol” (priority 2004, published 2006)
